Data reported in US8741940B2, “Microbicidal composition” (Rohm and Haas Company, priority 2005, dated 2014).
Where a name gives a salt, the structure may show the parent alone. Read-outs that look alike come from different tables or passages of the source.

Key:
Type in all cases: cell-based
[1] = system: Escherichia coli (E. coli—ATCC #8739); assay: Synergy test, microtiter plate high resolution MIC assay, bacterium in M9GY medium; design: key to SI (synergy index): SI = Qa/QA + Qb/QB; >1 antagonism, lower SI = greater synergy; Qa (First Component A) / Qb (Second Component B): unit: ppm; settings: for MIC: Escherichia coli
Protocol: (§1) When the sum of Qa/QA and Qb/QB is greater than one, antagonism is indicated. […] The lower the SI, the greater the synergy shown by that particular mixture. The minimum inhibitory concentration (MIC) of a microbicide is the lowest concentration tested under a specific set of conditions that prevents the growth of added microorganisms.
(§2) Synergy tests were conducted using standard microtiter plate assays with media designed for optimal growth of the test microorganism. Minimal salt medium supplemented with 0.2% glucose and 0.1% yeast extract (M9GY medium) was used for testing bacteria; Potato Dextrose Broth (PDB medium) was used for testing yeast and mold. In this method, a wide range of combinations of microbicides and other personal care raw materials was tested by conducting high resolution MIC assays in the presence of various concentrations of BBIT or MBIT. High resolution MICs were determined by adding varying amounts of microbicide to one column of a microtitre plate and doing subsequent […] dilutions using an automated liquid handling system to obtain a series of endpoints ranging from 2 ppm to 10,000 ppm active ingredient.
(§3) The bacteria were used at a concentration of about 5 ×10^6 bacteria per mL and the yeast and mold at 5×10^5 fungi per mL. These microorganisms are representative of natural contaminants in many consumer and industrial applications. […] (yeast and mold) or 30° C. (bacteria).
(§4) In each test, First Component (A) was BBIT and the Second Component (B) was the other commercial microbicide.
(§5) In each test, First Component (A) was MBIT and the Second Component (B) was the other commercial microbicide.

[2] = system: Candida albicans (C. albicans—ATCC 10231); assay: Synergy test, microtiter plate high resolution MIC assay, yeast in PDB medium; design: key to SI (synergy index): SI = Qa/QA + Qb/QB; >1 antagonism, lower SI = greater synergy; Qb (Second Component B) / Qa (First Component A): unit: ppm; settings: for MIC: Candida albicans
Protocol: as §1, §2, §3, §4, §5

[3] = system: Aspergillus niger (A. niger—ATCC 16404); assay: Synergy test, microtiter plate high resolution MIC assay, mold in PDB medium; design: key to SI (synergy index): SI = Qa/QA + Qb/QB; >1 antagonism, lower SI = greater synergy; Qb (Second Component B) / Qa (First Component A): unit: ppm; settings: for MIC: Aspergillus niger
Protocol: as §1, §2, §3, §4, §5

[4] = C. albicans 10231, PDB, 24 hours
[5] = C. albicans 10231, PDB, 24 hours, alone where Qa = 0, otherwise in the mixture
[6] = A=MBIT, B=dithio-2,2′-bis(N-methylbenzamide) (DTBMA), E. coli 8739 - M9GY, 24 hours
[7] = A=MBIT, B=dithio-2,2′-bis(N-methylbenzamide) (DTBMA), C. albicans 10231 - PDB, 24 hours
[8] = A=MBIT, B=dithio-2,2′-bis(N-methylbenzamide) (DTBMA), A. niger 16404 - PDB, 3 days
[9] = ATCC8739, E. coli 8739, M9GY, 24 hours, alone where Qa = 0, otherwise in the mixture, read-out: Qb (concentration of second component producing the end point, MIC)
[10] = ATCC16404, 168 h, A. niger 16404, PDB, 7 days, alone where Qa = 0, otherwise in the mixture, read-out: Qb (concentration of second component producing the end point, MIC)
[11] = A=MBIT, B=Benzyl alcohol, E. coli 8739 - M9GY, 24 hours
[12] = A=MBIT, B=Benzyl alcohol, C. albicans 10231 - PDB, 48 hours
[13] = A=MBIT, B=Benzyl alcohol, A. niger 16404 - PDB, 4 days

For “cocamidopropyl PG-dimonium chloride phosphate”, the “SI (synergy index)” value ([1]; E. coli 8739, M9GY, 48 hours) was 1.00, the “Qb (concentration of second component producing the end point, MIC)” value ([1]; E. coli 8739, M9GY, 48 hours, alone where Qa = 0, otherwise in the mixture) was 100 ppm and the SI ([1]; E. coli 8739 - M9GY, 72 hours, BBIT with Phospholipid PTC) was 1.00. For the same compound, the “SI (synergy index)” value [2, 4] was 1.00, the “Qb (concentration of second component producing the end point, MIC)” value [2, 5] was 1000 ppm and the SI ([2]; C. albicans 10231 - PDB, 24 hours, BBIT with Phospholipid PTC) was 1.00. For the same compound, the “SI (synergy index)” value ([3]; A. niger 16404, PDB, 4 days) was 1.00, the “Qb (concentration of second component producing the end point, MIC)” value ([3]; A. niger 16404, PDB, 4 days, alone where Qa = 0, otherwise in the mixture) was 1000 ppm and the SI ([3]; A. niger 16404 - PDB, 3 days, BBIT with Phospholipid PTC) was 1.00.

With `CNC(=O)c1ccccc1SSc1ccccc1C(=O)NC` [DTBMA, dithio-2,2′-bis(N-methylbenzamide)] the “Qb (Second Component B)” value [1, 6] was 80, the “SI (synergy index)” value [1, 6] was 1.00 and the SI ([1]; E. coli 8739 - M9GY, 48 hours, BBIT + DTBMA) was 1.00. The “Qb (Second Component B = DTBMA)” value ([1]; E. coli 8739 - M9GY, 48 hours, DTBMA alone (Qa 0) or in mixture with BBIT) was 60, the “Qb (Second Component B)” value [2, 7] was 2000 and the “SI (synergy index)” value [2, 7] was 1.00. The SI ([2]; C. albicans 10231 - PDB, 24 hours, BBIT + DTBMA) was 1.00, the “Qb (Second Component B = DTBMA)” value ([2]; C. albicans 10231 - PDB, 24 hours, DTBMA alone (Qa 0) or in mixture with BBIT) was 2000 and the SI ([3]; A. niger 16404 - PDB, 7 days, BBIT + DTBMA) was 1.00. For the same compound, the “Qb (Second Component B = DTBMA)” value ([3]; A. niger 16404 - PDB, 7 days, DTBMA alone (Qa 0) or in mixture with BBIT) was 1000, the “Qb (Second Component B)” value [3, 8] was 800 and the “SI (synergy index)” value [3, 8] was 1.00.

In the case of `COC(=O)c1ccc(O)cc1` [Methylparaben], the “SI (synergy index)” value ([1]; E. coli 8739, M9GY, 24 hours) is reported as 1.00, the SI ([1]; E. coli 8739 - M9GY, 72 hours, BBIT with Methylparaben) is reported as 1.00 and the MIC [1, 9] is reported as 2000 µg/mL. For the same compound, the “SI (synergy index)” value ([2]; C. albicans 10231, PDB, 48 hours) was 1.00, the SI ([2]; C. albicans 10231 - PDB, 24 hours, BBIT with Methylparaben) was 1.00 and the MIC ([2]; ATCC10231, C. albicans 10231, PDB, 48 hours, alone where Qa = 0, otherwise in the mixture, read-out: Qb (concentration of second component producing the end point, MIC)) was 2000 µg/mL. The “SI (synergy index)” value ([3]; A. niger 16404, PDB, 7 days) was 1.00, the SI ([3]; A. niger 16404 - PDB, 3 days, BBIT with Methylparaben) was 1.00 and the MIC [3, 10] was 800 µg/mL.

`OCc1ccccc1` [Benzyl alcohol] was tested, and the “Qb (Second Component B)” value [1, 11] was 5000, the “SI (synergy index)” value [1, 11] was 1.00 and the MIC ([1]; ATCC8739, E. coli 8739, M9GY, 24 hours, 30° C., read-out: MIC of the component acting alone (QA / QB)) was 2000 µg/mL. The “Qb (Second Component B)” value [2, 12] was 4000, the “SI (synergy index)” value [2, 12] was 1.00 and the MIC ([2]; ATCC10231, C. albicans 10231, PDB, 48 hours, 25° C., read-out: MIC of the component acting alone (QA / QB)) was 3000 µg/mL. For the same compound, the “Qb (Second Component B)” value [3, 13] was 6000, the “SI (synergy index)” value [3, 13] was 1.00 and the MIC ([3]; ATCC16404, 72 h, A. niger 16404, PDB, 3 days, 25° C., read-out: MIC of the component acting alone (QA / QB)) was 5000 µg/mL.

For `O=C(O)CN(CCN(CC(=O)O)CC(=O)O)CC(=O)O` [Ethylenediamine tetraacetic acid], the “SI (synergy index)” value [1] was 1.00, the MIC ([1]; ATCC8739, 24 h, read-out: Qb (concentration of second component producing the end point, MIC)) was 40000 µg/mL and the “SI (synergy index)” value [2] was 1.00. For the same compound, the MIC ([2]; ATCC10231, 48 h, read-out: Qb (concentration of second component producing the end point, MIC)) was 1000 µg/mL, the “SI (synergy index)” value [3] was 1.00 and the MIC ([3]; ATCC16404, 72 h, read-out: Qb (concentration of second component producing the end point, MIC)) was 1600 µg/mL.

`OCCCCO` [Butylene glycol] was tested, and the “Qb (Second Component B)” value [1] was 20000, the “SI (synergy index)” value [1] was 1.00 and the MIC ([1]; ATCC8739, 48 h, read-out: MIC of the component acting alone (QA / QB)) was 20000 µg/mL. For the same compound, the “Qb (Second Component B)” value [2] was 20000, the “SI (synergy index)” value [2] was 1.00 and the MIC ([2]; ATCC10231, 24 h, read-out: MIC of the component acting alone (QA / QB)) was 20000 µg/mL. For the same compound, the “Qb (Second Component B)” value [3] was 10000, the “SI (synergy index)” value [3] was 1.00 and the MIC ([3]; ATCC16404, 72 h, read-out: MIC of the component acting alone (QA / QB)) was 10000 µg/mL.

With `CC(=O)C1C(=O)C=C(C)OC1=O` (centres unmarked) [Dehydroacetic acid, sodium salt] the “SI (synergy index)” value ([1]; E. coli 8739, M9GY, 24 hours) was 1.00, the MIC [1, 9] was 20000 µg/mL and the “SI (synergy index)” value [2, 4] was 1.00. For the same compound, the MIC ([2]; ATCC10231, C. albicans 10231, PDB, 24 hours, alone where Qa = 0, otherwise in the mixture, read-out: Qb (concentration of second component producing the end point, MIC)) was 40 µg/mL, the “SI (synergy index)” value ([3]; A. niger 16404, PDB, 7 days) was 1.00 and the MIC [3, 10] was 200 µg/mL.

In the case of `CCCCC(CC)CN1CN(CC(CC)CCCC)CC(C)(N)C1` (centres unmarked) [Hexetidine], the “SI (synergy index)” value ([1]; E. coli 8739, M9GY, 72 hours) is reported as 1.00, the SI ([1]; E. coli 8739 - M9GY, 72 hours, BBIT + hexetidine) is reported as 1.00 and the “Qb (Second Component B = Hexetidine)” value ([1]; E. coli 8739 - M9GY, 72 hours, hexetidine alone (Qa 0) or in mixture with BBIT) is reported as 200. For the same compound, the MIC ([1]; ATCC8739, E. coli 8739, M9GY, 72 hours, alone where Qa = 0, otherwise in the mixture, read-out: Qb (concentration of second component producing the end point, MIC)) was 80 µg/mL, the “SI (synergy index)” value ([2]; C. albicans 10231, PDB, 72 hours) was 1.00 and the SI ([2]; C. albicans 10231 - PDB, 72 hours, BBIT + hexetidine) was 1.00. The “Qb (Second Component B = Hexetidine)” value ([2]; C. albicans 10231 - PDB, 72 hours, hexetidine alone (Qa 0) or in mixture with BBIT) was 100, the MIC ([2]; ATCC10231, C. albicans 10231, PDB, 72 hours, alone where Qa = 0, otherwise in the mixture, read-out: Qb (concentration of second component producing the end point, MIC)) was 80 µg/mL and the “SI (synergy index)” value ([3]; A. niger 16404, PDB, 3 days) was 1.00. For the same compound, the SI ([3]; A. niger 16404 - PDB, 4 days, BBIT + hexetidine) was 1.00, the “Qb (Second Component B = Hexetidine)” value ([3]; A. niger 16404 - PDB, 4 days, hexetidine alone (Qa 0) or in mixture with BBIT) was 100 and the MIC ([3]; ATCC16404, 72 h, A. niger 16404, PDB, 3 days, alone where Qa = 0, otherwise in the mixture, read-out: Qb (concentration of second component producing the end point, MIC)) was 200 µg/mL.

For `N=C(N)c1ccc(OCCCCCCOc2ccc(C(=N)N)cc2)cc1.O=S(=O)(O)CCO.O=S(=O)(O)CCO` [Hexamidine diisethionate], the “SI (synergy index)” value ([1]; E. coli 8739, M9GY, 24 hours) was 1.00, the “Qb (concentration of second component producing the end point, MIC)” value ([1]; E. coli 8739, M9GY, 24 hours, alone where Qa = 0, otherwise in the mixture) was 8 ppm and the SI ([1]; E. coli 8739 - M9GY, 48 hours, BBIT + hexamidine diisethionate) was 1.00. For the same compound, the “Qb (Second Component B = Hexamidine diisethionate)” value ([1]; E. coli 8739 - M9GY, 48 hours, hexamidine diisethionate alone (Qa 0) or in mixture with BBIT) was 100, the “SI (synergy index)” value [2, 4] was 1.00 and the “Qb (concentration of second component producing the end point, MIC)” value [2, 5] was 10 ppm. The SI ([2]; C. albicans 10231 - PDB, 24 hours, BBIT + hexamidine diisethionate) was 1.00 and the “Qb (Second Component B = Hexamidine diisethionate)” value ([2]; C. albicans 10231 - PDB, 24 hours, hexamidine diisethionate alone (Qa 0) or in mixture with BBIT) was 10.
